86 compounds from a melting point compilation (Tetko et al.; mined from patent text by program, amines drawn as free bases though some values may be those of a salt) can be followed below.

Molecules are shown by their SMILES.

`COc1cccc2c1CC(CC(=O)O)C(=O)C2` (stereo unspecified) returned a melting point of 129 to 131 °C.

Consider `COc1ccc(N2C(=O)N(c3cccc(C(N)=O)c3)c3nc(Nc4ccccc4)ncc3C2C)c(F)c1` (stereo unspecified), for which the melting point was 282 to 286 °C.

`Cc1cc(NC(=O)C(F)(c2ccccc2)c2nnn(CCCCCCCCCCCC(F)F)n2)c(C)c(C)c1O` (stereo unspecified) registered a melting point of 96 °C.

Compound `CCCCSc1cc(C(=O)O)cc(S(N)(=O)=O)c1Cl` gave a melting point of 202 to 203 °C.

Take `CC(=O)COc1cc(-c2ncc(C(F)(F)F)cc2Cl)ccc1C#N`: the melting point lay in the range of 146 to 147 °C.

As to `CC(C)(C)OC(=O)Nc1ccc(I)cc1NC(=O)CC(=O)c1cccc(C#N)c1`, the melting point was in the range of 182 to 183 °C.

Regarding `O=C(O)C1CCOc2ccc(F)cc21` (stereo unspecified), the melting point lay in the range of 111 to 115 °C.

Compound `Nn1c(-c2ccccc2Cl)nnc1-c1ccccc1Cl` had a melting point of 168 to 170 °C.

Consider `O=S(=O)(C1CC1)C(F)(F)C(O)(Cn1cncn1)c1ccc(F)cc1` (single isomer, unassigned; (+)), for which the melting point lay in the range of 144 to 145 °C.

`NC(=O)CC(=O)NCCS` registered a melting point of 100 °C.

Regarding `CC(C)C(NC(=O)Cn1cccc(NC(=O)Cc2ccccc2)c1=O)C(=O)C(F)(F)F` (stereo unspecified), the melting point was 70 to 72 °C.

On to `c1ccc(COc2ccc(-n3nnnc3C3CC3)cc2)cc1`, for which the melting point is 118 °C.

Take `CC1CC(=O)NN=C1c1ccc(NC(=O)c2cccs2)cc1` (stereo unspecified): the melting point lay within 256 to 258 °C.

In turn, `CCCc1nc2cccc(C(=S)OC)c2n1Cc1ccc(-c2ccccc2)c(-c2nc(=O)o[nH]2)c1` returned a melting point of 220 to 221 °C.

`c1ccc(-c2nn3c(c2-c2ccnc4cc(OCCN5CCOCC5)ccc24)CCCCC3)nc1` had a melting point of 157 to 159 °C.

`CC(=O)Nc1ccc(-c2nc3c(s2)C(=O)c2ccccc2C3=O)o1`: the melting point was greater than 260 °C.

Regarding `O=C(O)[C@@H]1CN[C@H](C(=O)O)C1`, the melting point lay within 219 to 220 °C.

`CCCn1c2c(ccc1=O)C(NCCc1ccc(Cl)c(Cl)c1)CCC2` (stereo unspecified) had a melting point of 105 to 107 °C.

Compound `S=c1[nH]cnc2c(Br)csc12` had a melting point of 328 °C.

Compound `COc1ccc(Cn2c(=O)c3c(c4ccccc42)OC(C)(C)[C@@H](O)[C@@H]3NC(=O)CCCCl)cc1` (relative stereo) registered a melting point of 218 to 219 °C.

Turning to `C=CCS(=O)(=O)c1ccc(N2CC=C(c3ccc(Cl)cc3)N2)cc1`, the melting point turned out to be 210 °C.

In turn, `CCOc1nc(NC(C)C)c2cscc2n1` came in with a melting point of 155 to 156 °C.

In turn, `O=C(Nc1ccc(Cl)cc1)N1CC(c2ccccc2)C(c2ccc(Cl)cc2)=N1` (stereo unspecified) showed a melting point of 173 to 175 °C.

Compound `CSc1ccc(COc2cccc(C(=O)Nc3ccc(C#N)cc3)c2)cc1` had a melting point of 147 to 148 °C.

For `CO[C@@H](Cc1ccc(OCCc2nc(-c3ccc(-c4ccccc4)cc3)oc2C)c2ccccc12)C(=O)O`, the melting point is 156 to 159 °C.

For the compound `COc1ccc(-n2c(=O)[nH]c3cc(Cl)cc(Cl)c3c2=O)cc1`, the melting point was 294 to 296 °C.

The compound `CCOC(=O)c1ncc2[nH]c3ccc(Br)cc3c2n1` had a melting point of 286 to 290 °C.

Turning to `CC(C)[C@H](NC(=O)Cc1csc(N(C)C)n1)C(=O)N[C@@H](Cc1ccccc1)[C@@H](O)C[C@H](Cc1ccccc1)NC(=O)OCc1cncs1`, the melting point lay in the range of 157 to 159 °C.

`OCC1C2OCC(O2)C(OCc2ccccc2)C1O` (stereo unspecified) registered a melting point of 111 to 113 °C.

In the case of `CC(=O)NCC1CN(c2ccc(N3CC4CCCN(C(=O)COC(C)=O)C4C3)c(F)c2)C(=O)O1` (stereo unspecified), the melting point fell in the range of 113 to 116 °C.

Take `COc1ccc2c(ccn2CC(=O)c2ccccc2Br)n1`: the melting point is 116 to 117 °C.

Compound `O=C(NCCSCc1cccc(F)c1)c1c(F)cccc1F` yielded a melting point of 39 to 41 °C.

As to `c1cnn(Cc2ccc3c(c2)Cc2c(-c4ccsc4)n[nH]c2-3)c1`, the melting point fell in the range of 262 to 270 °C.

In turn, `Cc1ccc(C)c(-c2cc(C#N)c(NC(=O)[C@@H]3C[C@@H]4CC[C@H]3C4)s2)c1` displayed a melting point of 168 to 169 °C.

On to `COc1ccc(-c2cc(-c3c(-c4ccccn4)nc4ccccn34)ccn2)cc1`, for which the melting point was 222 °C.

The compound `CCOc1nccc(Cl)c1NC(=O)OC(C)(C)C` displayed a melting point of 73 to 74 °C.

`COc1ccc(C)cc1NC(=O)Nc1ccc(C2CCN(C(=O)Nc3ncccc3CO)CC2)cc1` registered a melting point of 105 to 110 °C.

As to `CSc1nc(O)c(-c2ccccc2F)c(O)n1`, the melting point is greater than 240 °C.

Turning to `CN1CCN(S(=O)(=O)c2ccc(N3CCC(NC[C@H](O)c4ccc(O)c(NS(C)(=O)=O)c4)CC3)cc2)CC1`, the melting point fell in the range of 89 to 91 °C.

Consider `CN1CCN(c2nc3ccccc3n2CCOc2ccccc2)CC1`, for which the melting point is 152 to 154 °C.

`O=C(O)CCCOc1cccc2occc12` registered a melting point of 91 to 93 °C.

The compound `CN(c1ccccc1)S(=O)(=O)c1ccc(NC(=O)C(C)(O)C(F)(F)F)cc1` (stereo unspecified) registered a melting point of 147 to 149 °C.

With `CCCc1nnc(/C=C/c2cc(OCc3ccc(OCc4nc(-c5ccco5)oc4C)c(OC)c3)nn2-c2ccccc2)o1`, the melting point is 107 to 108 °C.

In turn, `CCOC(=O)c1cccc(-c2ccc3c(c2)C(=O)CCC3)c1` yielded a melting point of 89 to 90 °C.

Take `C[C@@H]1Cc2ccsc2[C@H](c2cccs2)N1CCNS(=O)(=O)c1ccc(N)cc1` (relative stereo): the melting point fell in the range of 156 to 161 °C.

Compound `CC(=O)N(C)c1cccnc1S(N)(=O)=O` showed a melting point of 181 to 185 °C.

The compound `Nc1nccc(-c2cccc(OCC(O)CN3CCN(c4ccc(Cl)cc4)CC3)c2)n1` (stereo unspecified) displayed a melting point of 141 to 142 °C.

As for `CCCc1nn(C)c2c(=O)[nH]c(-c3cc(S(=O)(=O)N4CCN(C)CC4)ccc3O)nc12`, the melting point fell in the range of 283 to 284 °C.

`OCc1nnc(-c2ccc(-c3ccccc3)cc2)n1-c1ccccc1F` displayed a melting point of 220 to 223 °C.

For the compound `CS(=O)(=O)Nc1ccccc1OCCCN1CCC(OC(c2ccccc2)c2ccsc2)CC1` (stereo unspecified), the melting point lay within 79.5 to 82 °C.

On to `CCOC(=O)Cc1c(C(=O)O)c(Br)c(C(=O)c2ccc(C)cc2)n1C`, for which the melting point fell in the range of 183 to 185 °C.

Take `Cc1c(F)cc(C(=N)N)c(Oc2ncccc2Oc2cccnc2)c1F`: the melting point is 213 to 214 °C.

Turning to `COc1ccc(Nc2nc(Cl)nc(Cl)n2)cc1`, the melting point fell in the range of 165 to 168 °C.

`COc1cc(Nc2c(C#N)cnc3cc(-c4ccc(CNCCc5ccccn5)o4)ccc23)c(Cl)cc1Cl` returned a melting point of 130 to 135 °C.

Take `Cc1oc(-c2ccco2)nc1COc1ccc(COc2nn(Cc3ccc(OCc4nc(-c5ccco5)oc4C)cc3)cc2C(=O)O)cc1`: the melting point was in the range of 144 to 145 °C.

On to `O=C(Oc1ccccc1)c1cc2ccc3c4cc(F)ccc4[nH]c3c2cc1O`, for which the melting point was in the range of 289 to 290 °C.

For `CCN1CC2CCCC2C1CNC(=O)c1cc(Cl)c(NC(C)=O)cc1OC` (stereo unspecified), the melting point is 156 to 157 °C.

In turn, `CCON=C(C)c1ccc2c(c1)ncn2-c1cccc(-c2cccnc2)c1` showed a melting point of 105 to 106 °C.

The compound `COc1ccc(OC)c(C2(OC)C(=O)Nc3ccc(Cl)cc32)c1` (stereo unspecified) returned a melting point of 180 °C.

For `CN1CCN(c2cc(Cl)cc3c2c(=O)n(Cc2ccccc2F)c(=O)n3Cc2ccccc2)CC1`, the melting point lay within 147 to 149 °C.

For the compound `Cc1cccc(-c2n[nH]cc2-c2ccc(F)c(-c3ccc(S(N)(=O)=O)c(C(F)(F)F)c3)c2)n1`, the melting point fell in the range of 107 to 110 °C.

`CC(=O)OC1OCCC[C@@H]1NC(=O)[C@H](CC(C)C)NC(=O)OCc1ccccc1` (stereo partly specified) displayed a melting point of 142 to 143 °C.

In turn, `CCN1CC(C#CC2CC2)(C(F)(F)F)c2cc(Cl)ccc2NC1=O` (stereo unspecified) returned a melting point of 186 to 188 °C.

As to `CC1(C)CCC(Br)(C(Br)c2ccc(Cl)cc2)C(=O)C1` (stereo unspecified), the melting point is 114 to 115 °C.

Compound `Cc1cc(O)cc(C)c1-c1cccc(CO)c1` returned a melting point of 175 °C.

For `O=C1CCC(=O)N1c1nc(Nc2ccc(O)c(Cl)c2)cc(-c2ccccc2)n1`, the melting point was 274 to 276 °C.

In turn, `COc1ccc2cccc(C(CCO)CNC(=O)C3CCC3)c2c1` (stereo unspecified) gave a melting point of 113 to 115 °C.

For `CC(C)(C)OC(=O)NN1CCN([Si](C)(C)C)C1=O`, the melting point is 132 °C.

`Nc1c(C(=O)c2ccccc2O)oc2ccc(Cl)cc12`: the melting point fell in the range of 208 to 210 °C.

Take `CCCC1=C(C(=O)OCC)C(c2ccccc2Cl)c2cnn(C(=O)OC(C)(C)C)c2N1` (stereo unspecified): the melting point lay within 112 to 116 °C.

In turn, `COc1cc(C(=O)CS(=O)(=O)c2ccccc2)ccc1Cc1cn(C(C)C(=O)N(C)C)c2ccc(C(=O)NCC3CCCC3)cc12` (stereo unspecified) displayed a melting point of 146 to 147 °C.

Regarding `COc1cc(Br)c(OC)c(CO)c1`, the melting point is 59 to 60 °C.

For the compound `CCc1cnc(N=Cc2cnc([N+](=O)[O-])n2C)n1CCO`, the melting point was 185 to 187 °C.

The compound `COc1cc(C)c(C(=O)c2c(Cl)cccc2Cl)c(O)c1O` came in with a melting point of 182 °C.

With `CCOC(=O)Nc1ccc(OCc2nc3ccccc3s2)cc1`, the melting point lay within 149 to 150 °C.

`CC(Oc1ccccc1Cl)c1nnc(N)s1` (stereo unspecified) came in with a melting point of 160 to 164 °C.

On to `CCOP(=O)(Cc1ccc(C(=O)O)s1)OCC`, for which the melting point was in the range of 77 to 78 °C.

`C=CCn1c(=O)c(C(=O)O)c(NC(=O)CCl)c2cccnc21`: the melting point was in the range of 145 to 148 °C.

The compound `O=C1c2cccc(NC(=S)Nc3cc[nH]n3)c2C2CC3(CCN12)SCCS3` (stereo unspecified) displayed a melting point of 185 °C.

In turn, `Cc1c(-c2ccccc2)n(-c2ccc(S(C)=O)cc2)c(-c2ccccc2)cc1=O` (stereo unspecified) yielded a melting point of 242 to 244 °C.

The compound `CC(C)(C)OC(=O)N[C@@H]1CN[C@H]2CCO[C@H]21` (relative stereo) registered a melting point of 110 to 111 °C.

In turn, `CN(C)S(=O)(=O)c1cccc2cccc(O)c12` registered a melting point of 95 °C.

In turn, `N#CC(C(=O)c1ccc(-c2nnn[nH]2)cc1)=C1CCCCN1` showed a melting point greater than 220 °C.

As to `Cn1nnnc1-c1cnc2cc(Br)ccc2c1O`, the melting point was greater than 300 °C.

`CS(=O)(=O)C(=C1CN(C(c2ccccc2)c2ccccc2)C1)c1ccccc1O`: the melting point amounted to 196 °C.

Compound `CCCNS(=O)(=O)c1cc2cc(P(=O)(O)O)c(=O)[nH]c2cc1Cl` gave a melting point greater than 300 °C.
